Experimental data reported in patent US20240174638A1, “HETEROARYL DERIVATIVES AS APELIN RECEPTOR AGONISTS” (RESEARCH TRIANGLE INSTITUTE, priority 2021, published 2024).

Legend:
[1] = test system: BLEO-induced lung fibrosis in male C57BL/6 mice; assay: Chronic (21-day) bleomycin-induced lung fibrosis model, prophylactic (Px) and therapeutic (Tx) arms; type: in vivo, mouse; conditions: for 21-day survival rate: BLEO-instilled mice
[2] = test system: bleomycin-induced pulmonary fibrosis in C57BL/6 mice; assay: 21-day non-GLP prophylactic bleomycin-induced pulmonary fibrosis study (oropharyngeal bleomycin; lung weight, BAL leukocytes); type: in vivo, mouse
Experimental: The objective of this non-GLP study was to evaluate the prophylactic efficacy of EXAMPLE 22 in a 21-day model of bleomycin-induced pulmonary fibrosis in mice.
Mice were administered bleomycin (Catalog number C-61703-323-22, lot number D011495AA, Hospira) via oropharyngeal route to induce lung fibrosis.
Bleomycin-induced animals were treated twice daily with either of the three different doses of EXAMPLE 22 or pirfenidone starting from a day prior to disease induction and continued till study termination. Study animals were harvested on day 21 post-bleomycin administration. As an end point analysis, fibrosis symptoms such as body weight, absolute lung weight, lung weight normalized to body weight, and total leukocytes in BAL fluid were evaluated and compared with vehicle-treated mice.
One week prior to study initiation, 88 C57BL/6 mice, six to eight weeks of age were obtained from Simonsen Laboratories (Gilroy, CA). Animals were weighed prior to study initiation and 60 animals were randomized into groups such that mean body weights were similar for the different groups. Remaining animals with lower or higher body weight were not included into the study. Food and water was provided ad libitum, with a light/dark cycle of 12 hours.

Human plasma protein = conditions: 6 h, 1 μM
Mouse plasma protein = conditions: 6 h, 1 μM
Rat plasma protein = conditions: 6 h, 1 μM
[3] = test system: Escherichia coli WP2 uvrA (pKM101)
in vitro = conditions: mouse, pH 7.4
[4] = relative to Vehicle-treated BLEO-instilled controls
[5] = prophylactic treatment twice daily, 21-day

## O=C(O)C[C@H](CCN1CCCC(F)(F)C1)NC(=O)c1cc(-c2ccccc2C(F)(F)F)n(-c2nccs2)n1 [Example 22, (3S)-5-(3,3-difluoropiperidin-1-yl)-3-{[1-(1,3-thiazol-2-yl)-5-[2-(trifluoromethyl)phenyl]-1H-pyrazol-3-yl]formamido}pentanoic acid]
[1]; 15 mpk/day Px EXAMPLE 22, Vehicle 5.58±0.34%
  composite Tissue Collagen Fraction (TCF): 4.51±0.31%
[1]; 15 mpk Px EXAMPLE 22 (p.o. BID)
  21-day survival rate: 91%
[1]; 30 mpk Px EXAMPLE 22 (p.o. BID)
  21-day survival rate: 91%
[1]; 60 mpk Px EXAMPLE 22 (p.o. BID)
  21-day survival rate: 92%
[1]; Tx EXAMPLE 22 60 mpk (p.o. BID, from 5 days post-BLEO)
  21-day survival rate: 100%
[1]; D0-D21, relative to Vehicle-treated BLEO-instilled controls
  ΔBW: Neither EXAMPLE 22 nor PIRF affected
[1]; overall conclusion of the study
  end-point readouts for fibrosis, overall: positive impact on one or more end-point readouts
[1]; [4]
  LW indexed to tibia length (LW:TL): Neither EXAMPLE 22 nor PIRF affected
  endpoint lung OH-P content: Neither EXAMPLE 22 nor PIRF affected
  endpoint lung weight (LW): Neither EXAMPLE 22 nor PIRF affected
  final BW: Neither EXAMPLE 22 nor PIRF affected
  serial BW: Neither EXAMPLE 22 nor PIRF affected
[2]; 30 mg/kg
  effectiveness compared across doses: somewhat more effective
[2]; normalized to body weight, prophylactic treatment twice daily, 21-day
  normalized lung weights: reduced absolute and normalized lung weights
[2]; [5]
  absolute lung weights: reduced absolute and normalized lung weights
  total number of leukocytes from bronchoalveolar lavage (BAL) fluid: decreased total number of leukocytes
[2]; prophylactic treatment twice daily, 21-day non-GLP study
  overt symptoms associated with bleomycin administration: improved the overt symptoms
Human plasma protein
  % Protein Bound Rep 1: 36.79%
  % Protein Bound Rep 2: 90.21%
  % Protein Bound Rep 3: 87.89%
  Buffer Concentration Rep 1: 80.7 nM
  Buffer Concentration Rep 2: 70.2 nM
  Buffer Concentration Rep 3: 81.2 nM
  Mean % Protein Bound: 88.29%
  Plasma Concentration Rep 1: 0.611 µM
  Plasma Concentration Rep 2: 0.7171 µM
  Plasma Concentration Rep 3: 0.6706 µM
Mouse plasma protein
  % Protein Bound Rep 1: 92.07%
  % Protein Bound Rep 2: 90.96%
  % Protein Bound Rep 3: 91.91%
  Buffer Concentration Rep 1: 67.1 nM
  Buffer Concentration Rep 2: 79.3 nM
  Buffer Concentration Rep 3: 67.6 nM
  Mean % Protein Bound: 91.60%
  Plasma Concentration Rep 1: 0.8463 µM
  Plasma Concentration Rep 2: 0.877 µM
  Plasma Concentration Rep 3: 0.8358 µM
Rat plasma protein
  % Protein Bound Rep 1: 91.63%
  % Protein Bound Rep 2: 90.98%
  % Protein Bound Rep 3: 92.73%
  Buffer Concentration Rep 1: 49.3 nM
  Buffer Concentration Rep 2: 62.3 nM
  Buffer Concentration Rep 3: 53.6 nM
  Mean % Protein Bound: 91.78%
  Plasma Concentration Rep 1: 0.5886 µM
  Plasma Concentration Rep 2: 0.6906 µM
  Plasma Concentration Rep 3: 0.7374 µM
[3]
  Cytotoxicity Code: N
  cytotoxicity to tester strain: No cytotoxicity was observed
  dose related increase of revertant colonies: No dose related increase
[3]; Escherichia coli
  increase in mean number of revertant colonies vs negative/solvent control: < 2 fold
In vitro
  recovery at 6 h, 1 μM: 92.4%
